Experimental data from patent US8377473B2, “Slow release magnesium composition and uses thereof” (Magceutics, Inc., priority 2009, dated 2013).

Assays:
diabetic patients = details: nearly 1 g of magnesium daily for 1 month; cited from earlier work
[1] = cited from earlier work
rats [2] = details: young and aged rats, cited from earlier work
rats [3] = experiment: Margin of safety: incidence of diarrhea with magnesium preparations in drinking water; details: elemental magnesium via drinking water for 4 days, non-linear regression
Experimental: Animals: Adult male Sprague-Dawley rats were obtained from Wei Tong Li Hua Beijing, China. Rats were individually-housed with free access to standard food and water under a 12:12 h reversed light-dark cycle, with light onset at 8:00 p.m. […] All experimental procedures were approved by the Tsinghua University Committees on Animal Care.
(Magceutics Inc., USA), Magnesium chloride and glycinate (Modern Eastern Fine Chemical, China), magnesium gluconate and citrate (Sigma-Aldrich, Germany). Lactose was obtained from Biobasic Inc (Beijing, China).
The magnesium dose dissolved in the daily intake volume of water was determined based on intake of ˜30 ml/day/rat. Animals were supplied with the magnesium supplemented drinking water for 4 days, after which time the number of animals that developed diarrhea was monitored and calculated as a percentage of the total number of animals in the respective group.
(§1) Statistical analysis: All data were approximated with a normal distribution. […] One-way analysis of variance was used to analyze the cerebrospinal fluid data. GraphPad prism was used for data analysis (version 5.00, GraphPad software Inc.).

[4] = Magnesium content in the cerebrospinal fluid; details: 24 days of treatment, approximately 50 mg/kg/day elemental magnesium via drinking water
From the text: as §1

[O]=[Mg] [magnesium oxide]
increase of serum magnesium level (diabetic patients): about 10% | metabolic control (diabetic patients): only minor improvement | magnesium absorption rate ([1]; Firoz and Graber 2001): about 4% | bioavailability ([1]; Ranade and Somberg 2001): 4% | cognitive function (rats [2]; food containing 2% magnesium oxide for 8 days): some sign of improvement | side-effect (rats [2]; food containing 2% magnesium oxide): diarrhea and weight loss

magnesium gluconate
TD50 (toxic dose required to induce diarrhea in 50% of animals) (rats [3]): 99.7 mg/kg/day

[Cl-].[Cl-].[Mg+2] [magnesium chloride]
TD50 (toxic dose required to induce diarrhea in 50% of animals) (rats [3]): 90.0 mg/kg/day | magnesium concentration in cerebrospinal fluid ([Mg2+]CSF) [4]: relatively limited effect
